Patent US20220362330A1, “Compositions and Methods for Increasing Epithelial Barrier Function” (The Board of Trustees of the Leland Stanford Junior …, priority 2019, published 2022)
Entries after “also recorded” stand apart in the source; their conditions may differ.

Tested on: EphrinA3 (EFNA3)
Test: EphrinA3 gene and protein expression in vaginal tissue (RT-PCR, immunohistochemistry)
Type: in vivo
Details: DMPA-treated vs estrus-stage mice
Description: Vaginal tissue was harvested from mice in estrus, DMPA-treated mice, and mice treated with DMPA and Premarin vaginal cream were placed in RNAlater® for RNA isolation or embedded in formaldehyde for histology analysis. FIG. 5A is a bar graph showing gene expression for Ephrin A3 (Efna3) relative to pyruvate carboxylase, a housekeeping gene.
To corroborate microarray results, EphrinA3 gene and protein expression were compared in estrus-stage and DMPA-treated mice. To also evaluate effects of exogenous estrogen, other DMPA-treated mice were treated intravaginally with the estrogen cream Premarin. […] The vaginal tissue was assessed for DSG1 protein levels using immunofluorescent staining and confocal microscopy.
Human ectocervical and murine vaginal tissues were immediately immersed in 1 mL of RNAlater® (Qiagen), stored for 24 h at 4° C., and stored long-term at −80° C. RNA isolated using the RNeasy Lipid Tissue Kit (Qiagen) using manufacturer's instructions was re-suspended in nuclease-free water and quantified using a NanoDrop spectrophotometer (Thermo Scientific). […] To define relative gene expression, 100 ng of RNA was mixed with TaqMan® RNA-to-Ct™ 1-Step Kit and adequate primer (final volume of 10 μL/well) using manufacturer's instructions (Life Technologies). qRT-PCR was performed using a Quantstudio3 Thermal Cycler, and data analyzed via Quanstudio Software (Applied Biosystems). […]

CC(=O)O[C@]1(C(C)=O)CC[C@H]2[C@@H]3C[C@H](C)C4=CC(=O)CC[C@]4(C)[C@H]3CC[C@@]21C [DMPA]
expression of EphrinA3 in vaginal mucosal tissue: dramatically impair expression; also recorded: reduces EFNA3 expression
